The values that follow come from US7435837B2, “Dihydrobenzofuranyl alkanamine derivatives and methods for using same” (Wyeth, priority 2003, dated 2008).

Assay [1] addresses T1, human 5-hydroxytryptamine-2C (h5-HT2C) receptor (Homo sapiens, UniProt P28335).
T1 construct: expressed in transfected cells; host or cells: CHO (Chinese Hamster Ovary) cells; membranes
T1 sequence (P28335 33-458): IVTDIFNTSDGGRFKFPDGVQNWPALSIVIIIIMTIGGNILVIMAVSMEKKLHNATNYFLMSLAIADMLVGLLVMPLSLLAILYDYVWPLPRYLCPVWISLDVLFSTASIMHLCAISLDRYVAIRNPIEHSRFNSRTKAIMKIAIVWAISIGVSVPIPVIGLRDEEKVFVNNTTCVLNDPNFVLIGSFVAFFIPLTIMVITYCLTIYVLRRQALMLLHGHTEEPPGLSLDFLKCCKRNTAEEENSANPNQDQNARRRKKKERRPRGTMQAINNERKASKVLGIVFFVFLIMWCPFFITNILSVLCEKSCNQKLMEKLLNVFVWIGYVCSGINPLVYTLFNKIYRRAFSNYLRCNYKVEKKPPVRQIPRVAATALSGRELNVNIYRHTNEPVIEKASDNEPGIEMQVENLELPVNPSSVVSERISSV
The experiment in a line: [125I]DOI binding to membranes of CHO cells expressing the human 5-HT2C receptor. Particulars: [125I]DOI radioligand, CHO cell membranes, room temperature 60 min; read-out: 5-HT2C Affinity Ki.

A further assay has as its target T2, human 5-HT2C receptor (Homo sapiens, UniProt P28335).
T2 sequence (P28335 33-458): T1 sequence (P28335 33-458)
The experiment in a line: 5-HT2C receptor-stimulated calcium mobilization (FLIPR) in CHO cells.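 On all read-outs here: Fluo-3-AM fluorescence read on FLIPR every 1 s, agonist added after 10 baseline reads, response taken as peak minus lowest raw fluorescence count.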 Format: cell-based. To be noted: for Emax: CHO, read-out: 5-HT2C Function Emax (%); for Emax / 5-HT2C Function Emax (%): percentage of the response observed with a maximally effective concentration of 5-HT; for EC50: calcium mobilization, CHO cells stably expressing human 5-HT2C, read-out: 5-HT2C Function EC50. For orientation: Calcium assays in cells follow changes in intracellular calcium, usually with a dye or a luminescent sensor.

By Ki is commonly meant a measure of affinity in units of concentration, obtained from inhibition or displacement. For orientation: Emax means the size of the effect at its maximum, as opposed to the concentration needed. The term EC50 denotes the concentration at which the effect is half-maximal. `NCC1Cc2cccc(-c3ccc(F)cc3)c2O1` (single isomer, unassigned; (+)) [Example 74, (+)-1-[7-(4-fluorophenyl)-2,3-dihydro-1-benzofuran-2-yl]methanamine]: the Ki in assay [1] is 3 nM. On human 5-HT2C receptor, the Emax was 100% and the EC50 came to 11 nM.
`NCC1Cc2cccc(-c3ccc(Cl)cc3)c2O1` (single isomer, unassigned; (+)) [Example 77, (+)-1-[7-(4-chlorophenyl)-2,3-dihydro-1-benzofuran-2-yl]methanamine]: in assay [1], the Ki is 2 nM. At human 5-HT2C receptor, the Emax is 100% and the EC50 was 8 nM.
Regarding `COc1ccc(-c2cccc3c2OC(CN)C3)cc1` (single isomer, unassigned; (+)) [Example 80, (+)-1-[7-(4-methoxyphenyl)-2,3-dihydro-1-benzofuran-2-yl]methanamine], in assay [1], the Ki was found to be 1 nM. Moreover, at human 5-HT2C receptor, the EC50 is 17 nM and the “5-HT2C Function Emax (%)” value is 90%.
Take `NCC1Cc2cc(Cl)cc(-c3ccccc3)c2O1` (single isomer, unassigned; (+)) [Example 85, (+)-1-(5-chloro-7-phenyl-2,3-dihydro-1-benzofuran-2-yl)methanamine]: in assay [1], the Ki is 5 nM. Besides, on human 5-HT2C receptor, the Emax stood at 100% and the EC50 turned out to be 557 nM.
In the same order, the values of `CNCC1Cc2cc(Cl)cc(-c3ccsc3)c2O1` (single isomer, unassigned; (+)) [Example 93, (+)-N-[(5-chloro-7-thien-3-yl-2,3-dihydro-1-benzofuran-2-yl)methyl]-N-methylamine] are 13 nM, 80% and 874 nM.
Consider `Cc1ccccc1-c1cc(Cl)cc2c1OC(CN)C2` (single isomer, unassigned; (+)) [Example 96, (+)-1-[5-chloro-7-(2-methylphenyl)-2,3-dihydro-1-benzofuran-2-yl]methanamine], for which the Ki in assay [1] came out at 1 nM. On human 5-HT2C receptor, the EC50 is 27 nM and the “5-HT2C Function Emax (%)” value was 100%.
As for `NCC1Cc2cc(F)cc(-c3ccccc3Cl)c2O1` (single isomer, unassigned; (+)) [Example 101, (+)-1-[7-(2-chlorophenyl)-5-fluoro-2,3-dihydro-1-benzofuran-2-yl]methanamine], in assay [1], the Ki was 0.2 nM. Also, on human 5-HT2C receptor, the EC50 turned out to be 0.32 nM and the “5-HT2C Function Emax (%)” value was 100%.
For `Cc1ccccc1-c1cc(F)cc2c1OC(CN)C2` (single isomer, unassigned; (+)) [Example 105, (+)-1-[5-fluoro-7-(2-methylphenyl)-2,3-dihydro-1-benzofuran-2-yl]methanamine], in assay [1], the Ki came to 1 nM. Further, at human 5-HT2C receptor, the EC50 was 4 nM and the “5-HT2C Function Emax (%)” value stood at 95%.
In the case of `Cc1cccc(C)c1-c1cccc2c1CC(CN)O2` (single isomer, unassigned; (+)) [Example 126, (+)-1-[4-(2,6-dimethylphenyl)-2,3-dihydro-1-benzofuran-2-yl]methanamine], the Ki in assay [1] turned out to be 17 nM. At human 5-HT2C receptor, the Emax was determined as 40% and the EC50 amounted to 2720 nM.
For `COc1ccccc1-c1cccc2c1OC(CN)C2` (single isomer, unassigned; (+)) [Example 128, (+)-1-[7-(2-methoxyphenyl)-2,3-dihydro-1-benzofuran-2-yl]methanamine], in that order: 41 nM, 70% and 24 nM.
For `NCC1Cc2cccc(-c3ccccc3Cl)c2O1` (single isomer, unassigned; (+)) [Example 130, (+)-1-[7-(2-chlorophenyl)-2,3-dihydro-1-benzofuran-2-yl]methanamine], the Ki in assay [1] amounted to 4.8 nM. Also, on human 5-HT2C receptor, the EC50 amounted to 54 nM and the “5-HT2C Function Emax (%)” value amounted to 80%.
In the same order, the values of `NCC1Cc2cccc(-c3cccc(F)c3)c2O1` (single isomer, unassigned; (+)) [Example 131, (+)-1-[7-(3-fluorophenyl)-2,3-dihydro-1-benzofuran-2-yl]methanamine] are 1.5 nM, 34 nM and 90%.
On to `COc1cccc(-c2cccc3c2OC(CN)C3)c1` (single isomer, unassigned; (+)) [Example 133, (+)-1-[7-(3-methoxyphenyl)-2,3-dihydro-1-benzofuran-2-yl]methanamine], for which the Ki in assay [1] worked out at 3.6 nM. Further, at human 5-HT2C receptor, the Emax was 80% and the EC50 worked out at 66 nM.
With `NCC1Cc2cccc(-c3ccc(C(F)(F)F)cc3)c2O1` (single isomer, unassigned; (+)) [Example 137, (+)-1-{7-[4-(trifluoromethyl)phenyl]-2,3-dihydro-1-benzofuran-2-yl}methanamine], in assay [1], the Ki was determined as 1.2 nM. Further, at human 5-HT2C receptor, the EC50 was 473 nM and the “5-HT2C Function Emax (%)” value is 90%.
In the same order, the values of `NCC1Cc2cccc(-c3c(Cl)cccc3Cl)c2O1` (single isomer, unassigned; (+)) [Example 142, (+)-1-[7-(2,6-dichlorophenyl)-2,3-dihydro-1-benzofuran-2-yl]methanamine] are 1.6 nM, 101 nM and 80%.
In the case of `NCC1Cc2cccc(-c3ccc(F)cc3F)c2O1` (single isomer, unassigned; (+)) [Example 147, (+)-1-[7-(2,4-difluorophenyl)-2,3-dihydro-1-benzofuran-2-yl]methanamine], in assay [1], the inhibition constant Ki is 1.3 nM. Moreover, on human 5-HT2C receptor, the Emax amounted to 90% and the EC50 stood at 7 nM.
Take `NCC1Cc2cccc(-c3ccc(Cl)cc3Cl)c2O1` (single isomer, unassigned; (+)) [Example 150, (+)-1-[7-(2,4-dichlorophenyl)-2,3-dihydro-1-benzofuran-2-yl]methanamine]: the Ki in assay [1] is 4.1 nM. Further, at human 5-HT2C receptor, the EC50 was found to be 74 nM and the “5-HT2C Function Emax (%)” value was 100%.
With `NCC1Cc2cc(F)cc(-c3ccccc3C(F)(F)F)c2O1` (single isomer, unassigned; (+)) [Example 152, (+)-1-{5-fluoro-7-[2-(trifluoromethyl)phenyl]-2,3-dihydro-1-benzofuran-2-yl}methanamine], in assay [1], the Ki was 6.6 nM. At human 5-HT2C receptor, the EC50 stood at 202 nM and the “5-HT2C Function Emax (%)” value came out at 70%.
Turning to `Cc1cc(Cl)ccc1-c1cccc2c1OC(CN)C2` (single isomer, unassigned; (+)) [Example 158, (+)-{[7-(4-chloro-2-methylphenyl)-2,3-dihydro-1-benzofuran-2-yl]methyl}amine], the Ki in assay [1] was 1.1 nM. Besides, on human 5-HT2C receptor, the Emax was found to be 100% and the EC50 was 42 nM.
As for `NCC1Cc2cccc(-c3cc(Cl)ccc3Cl)c2O1` (single isomer, unassigned; (+)) [Example 164, (+)-{[7-(2,5-dichlorophenyl)-2,3-dihydro-1-benzofuran-2-yl]methyl}amine], the Ki in assay [1] was 0.28 nM. In addition, at human 5-HT2C receptor, the EC50 was 0.3 nM and the “5-HT2C Function Emax (%)” value worked out at 100%.
On to `NCC1Cc2cccc(-c3cccnc3)c2O1` (single isomer, unassigned; (+)) [Example 171, (+)-{[7-pyridin-3-yl-2,3-dihydro-1-benzofuran-2-yl]methyl}amine], for which the Ki in assay [1] came to 0.88 nM. Also, at human 5-HT2C receptor, the Emax was 100% and the EC50 was found to be 0.7 nM.
Turning to `NCC1Cc2cc(F)cc(-c3cccnc3)c2O1` (single isomer, unassigned; (+)) [Example 208, (+)-{[5-fluoro-7-pyridin-3-yl-2,3-dihydro-1-benzofuran-2-yl]methyl}amine], in assay [1], the inhibition constant Ki is 1.9 nM. Besides, at human 5-HT2C receptor, the EC50 was 0.36 nM and the “5-HT2C Function Emax (%)” value came out at 100%.
On to `NCC1Cc2cc(Cl)cc(-c3ccc(Cl)cc3Cl)c2O1` (single isomer, unassigned; (+)) [Example 253, (+)-{[5-chloro-7-(2,4-dichlorophenyl)-2,3-dihydro-1-benzofuran-2-yl]methyl}amine], for which the Ki in assay [1] was found to be 8.6 nM. At human 5-HT2C receptor, the EC50 was 251 nM and the “5-HT2C Function Emax (%)” value is 90%.
With `Cc1cc2c(c(-c3ccc(Cl)cc3Cl)c1)OC(CN)C2` (single isomer, unassigned; (+)) [Example 299, (+)-{[7-(2,4-dichlorophenyl)-5-methyl-2,3-dihydro-1-benzofuran-2-yl]methyl}amine], the Ki in assay [1] came out at 0.19 nM. Moreover, on human 5-HT2C receptor, the EC50 turned out to be 0.1 nM and the “5-HT2C Function Emax (%)” value was 100%.
With `COc1cc2c(c(-c3cc(Cl)ccc3Cl)c1)OC(CN)C2` (single isomer, unassigned; (+)) [Example 368, (+)-{[7-(2,5-dichlorophenyl)-5-methoxy-2,3-dihydro-1-benzofuran-2-yl]methyl}amine], the Ki in assay [1] is 1.4 nM. Besides, on human 5-HT2C receptor, the Emax amounted to 90% and the EC50 was found to be 4 nM.
Turning to `CNCC1Cc2cccc(-c3ccccc3C)c2O1` (single isomer, unassigned; (+)) [Example 408, (+)-N-methyl-1-[7-(2-methylphenyl)-2,3-dihydro-1-benzofuran-2-yl]methanamine], the Ki in assay [1] is 0.46 nM. Further, on human 5-HT2C receptor, the EC50 was 6 nM and the “5-HT2C Function Emax (%)” value came to 90%.
